Laboratory results from patent publication US10820591B2, “Substituted sulfonyl amides for controlling animal pests” (Bayer Aktiengesellschaft, priority 2016, dated 2020).

Experiments:
Assay type in all cases: in vivo
Myzus persicae [1] = assay: Myzus persicae oral test; conditions: 120 h, after 5 days, read-out: efficacy
Procedure: Myzus persicae—Oral Test [table] To produce a suitable active compound preparation, 1 part by weight of active compound is dissolved with the stated parts by weight of solvent and made up to the desired concentration with water. 50 μl of the active compound preparation are transferred into microtitre plates and made up to a final volume of 200 μl with 150 μl of IPL41 insect medium (33%+15% sugar). Subsequently, the plates are sealed with parafilm, which a mixed population of green peach aphids (Myzus persicae) within a second microtitre plate is able to puncture and imbibe the solution through it. After 5 days, the efficacy in % is determined. 100% means that all the aphids have been killed; 0% means that no aphids have been killed.

Meloidogyne incognita = Meloidogyne incognita test (sand, lettuce, gall formation); conditions: Meloidogyne incognita, 336 h, 20 ppm, after 14 days; read-out: nematicidal efficacy (formation of galls)
Method in brief: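 Vessels held sand, diluted compound solution, M. incognita egg/larvae suspension and lettuce seeds, and the plants grew for 14 days. Efficacy in % came from root gall formation: 100% means no galls, 0% means galls equal to the untreated control.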

Myzus persicae [2] = assay: Myzus persicae spray test (Chinese cabbage leaf discs); conditions: foliar, 144 h, after 6 days, read-out: efficacy
Procedure: Myzus persicae—Spray Test [table] To produce a suitable active compound preparation, 1 part by weight of active compound is dissolved with the specified parts by weight of solvent and made up to the desired concentration with water containing an emulsifier concentration of 1000 ppm. To produce further test concentrations, the formulation is diluted with emulsifier-containing water. Discs of Chinese cabbage leaves (Brassica pekinensis) infested by all stages of the green peach aphid (Myzus persicae) are sprayed with an active compound preparation of the desired concentration. After 6 days, the efficacy in % is determined. 100% means that all the aphids have been killed; 0% means that no aphids have been killed.

Cc1nc(C(=O)NS(=O)(=O)c2ccccc2Cl)cn1-c1c(F)cccc1F [I-004]
pest or weed control at 20 ppm (Myzus persicae [1]): 70%
pest or weed control at 20 ppm (Meloidogyne incognita): 90%

Cc1nc(C(=O)NS(=O)(=O)C(C)C)cn1-c1ccccc1Cl [I-006]
pest or weed control at 20 ppm (Meloidogyne incognita): 100%
pest or weed control at 500 g/ha (Myzus persicae [2]): 90%

N#Cc1c(C(=O)NS(=O)(=O)c2ccccc2Cl)ncn1CCC(F)(F)F [I-007]
pest or weed control at 20 ppm (Myzus persicae [1]): 70%
pest or weed control at 20 ppm (Meloidogyne incognita): 70%

COc1ccc(S(=O)(=O)NC(=O)c2ncn(CCC(F)(F)F)c2Br)cc1 [I-010]
pest or weed control at 20 ppm (Meloidogyne incognita): 90%
pest or weed control at 100 g/ha (Myzus persicae [2]; 100 g/ha): 90%
pest or weed control at 500 g/ha (Myzus persicae [2]): 70%

CCCn1cnc(C(=O)NS(=O)(=O)c2ccc(Cl)cc2)c1Cl [I-042]
pest or weed control at 20 ppm (Meloidogyne incognita): 100%
pest or weed control at 500 g/ha (Myzus persicae [2]): 70%

COc1ccc(Cl)c(S(=O)(=O)NC(=O)c2nc(C)n(-c3cc(Cl)cc(Cl)c3)c2Cl)c1 [I-106]
pest or weed control at 4 ppm (Myzus persicae [1]; 4 ppm): 100%
pest or weed control at 20 ppm (Meloidogyne incognita): 100%

CC(C)S(=O)(=O)NC(=O)c1cn(C)c(Cc2cccc(Cl)c2)n1 [I-120]
pest or weed control at 20 ppm (Meloidogyne incognita): 100%
pest or weed control at 500 g/ha (Myzus persicae [2]): 90%

O=C(NS(=O)(=O)c1ccc(Cl)cc1)c1cn(Cc2ccccc2Cl)cn1 [I-158]
pest or weed control at 20 ppm (Meloidogyne incognita): 100%
pest or weed control at 500 g/ha (Myzus persicae [2]): 90%

O=C(NS(=O)(=O)c1ccccc1)c1cn(-c2ccccc2OC(F)(F)F)cn1 [I-214]
pest or weed control at 20 ppm (Meloidogyne incognita): 90%
pest or weed control at 500 g/ha (Myzus persicae [2]): 70%

O=C(NS(=O)(=O)c1c(Cl)cccc1Cl)c1cn(-c2ccccc2F)cn1 [I-220]
pest or weed control at 20 ppm (Meloidogyne incognita): 100%
pest or weed control at 500 g/ha (Myzus persicae [2]): 70%

COc1ccc(Cl)c(S(=O)(=O)NC(=O)c2cn(-c3cc(F)cc(C(F)(F)F)c3)cn2)c1 [I-250]
pest or weed control at 100 ppm (Myzus persicae [1]; 100 ppm): 100%
pest or weed control at 20 ppm (Meloidogyne incognita): 100%

COc1ccc(Cl)c(S(=O)(=O)NC(=O)c2cn(-c3ccccc3Cl)c(C)n2)c1 [I-266]
pest or weed control at 20 ppm (Myzus persicae [1]): 90%
pest or weed control at 20 ppm (Meloidogyne incognita): 100%

COc1ccc(Cl)c(S(=O)(=O)NC(=O)c2cn(-c3cc(Cl)c(Br)c(Cl)c3)cn2)c1 [I-314]
pest or weed control at 20 ppm (Meloidogyne incognita): 90%
pest or weed control at 500 g/ha (Myzus persicae [2]): 70%

O=C(NS(=O)(=O)c1cc(Cn2cccn2)ccc1Cl)c1cn(-c2cc(Cl)cc(C(F)(F)F)c2)cn1 [I-346]
pest or weed control at 20 ppm (Meloidogyne incognita): 70%
pest or weed control at 500 g/ha (Myzus persicae [2]): 70%

Cc1nc(C(=O)NS(=O)(=O)c2c(F)cccc2NC(C)C)cn1-c1cc(F)cc(F)c1 [I-385]
pest or weed control at 20 ppm (Meloidogyne incognita): 100%
pest or weed control at 500 g/ha (Myzus persicae [2]): 70%

COc1ccc(Cl)c(S(=O)(=O)NC(=O)c2cn(-c3cc(Cl)cc(C(F)(F)F)c3)c(C(C)C)n2)c1 [I-401]
pest or weed control at 20 ppm (Meloidogyne incognita): 70%
pest or weed control at 500 g/ha (Myzus persicae [2]): 90%

Cc1ccccc1S(=O)(=O)NC(=O)c1nc(Cl)n(CCC(F)(F)F)c1Cl [I-452]
pest or weed control at 20 ppm (Meloidogyne incognita): 100%

CSc1cccc(Cl)c1S(=O)(=O)NC(=O)c1nc(Cl)n(CCC(F)(F)F)c1Cl [I-453]
pest or weed control at 20 ppm (Meloidogyne incognita): 100%

COc1ccc(Cl)cc1S(=O)(=O)NC(=O)c1nc(Cl)n(CCC(F)(F)F)c1Cl [I-454]
pest or weed control at 20 ppm (Meloidogyne incognita): 100%

COc1ccc(Br)c(S(=O)(=O)NC(=O)c2nc(Cl)n(CCC(F)(F)F)c2Cl)c1 [I-455]
pest or weed control at 20 ppm (Meloidogyne incognita): 100%

COc1ccc(F)c(S(=O)(=O)NC(=O)c2nc(Cl)n(CCC(F)(F)F)c2Cl)c1 [I-457]
pest or weed control at 20 ppm (Meloidogyne incognita): 100%

O=C(NS(=O)(=O)c1cc(C(F)(F)F)ccc1Cl)c1nc(Cl)n(CCC(F)(F)F)c1Cl [I-458]
pest or weed control at 20 ppm (Meloidogyne incognita): 100%

CCOc1ccc(Cl)c(S(=O)(=O)NC(=O)c2nc(Cl)n(C3CC3C(F)(F)F)c2Cl)c1 (stereo not drawn) [I-459]
pest or weed control at 20 ppm (Meloidogyne incognita): 100%

O=C(NS(=O)(=O)c1c(Cl)cccc1Cl)c1nc(Cl)n(C2CC2C(F)(F)F)c1Cl (stereo not drawn) [I-461]
pest or weed control at 20 ppm (Meloidogyne incognita): 100%

Cc1ccccc1S(=O)(=O)NC(=O)c1nc(Cl)n(C2CC2C(F)(F)F)c1Cl (stereo not drawn) [I-462]
pest or weed control at 20 ppm (Meloidogyne incognita): 100%

CSc1cccc(Cl)c1S(=O)(=O)NC(=O)c1nc(Cl)n(C2CC2C(F)(F)F)c1Cl (stereo not drawn) [I-463]
pest or weed control at 20 ppm (Meloidogyne incognita): 100%

COc1ccc(Cl)cc1S(=O)(=O)NC(=O)c1nc(Cl)n(C2CC2C(F)(F)F)c1Cl (stereo not drawn) [I-464]
pest or weed control at 20 ppm (Meloidogyne incognita): 90%

COc1ccc(Br)c(S(=O)(=O)NC(=O)c2nc(Cl)n(C3CC3C(F)(F)F)c2Cl)c1 (stereo not drawn) [I-465]
pest or weed control at 20 ppm (Meloidogyne incognita): 100%

CCc1ccc(C)c(S(=O)(=O)NC(=O)c2nc(Cl)n(C3CC3C(F)(F)F)c2Cl)c1 (stereo not drawn) [I-466]
pest or weed control at 20 ppm (Meloidogyne incognita): 100%

COc1ccc(F)c(S(=O)(=O)NC(=O)c2nc(Cl)n(C3CC3C(F)(F)F)c2Cl)c1 (stereo not drawn) [I-467]
pest or weed control at 20 ppm (Meloidogyne incognita): 100%

O=C(NS(=O)(=O)c1cc(C(F)(F)F)ccc1Cl)c1nc(Cl)n(C2CC2C(F)(F)F)c1Cl (stereo not drawn) [I-468]
pest or weed control at 20 ppm (Meloidogyne incognita): 100%

O=C(NS(=O)(=O)c1ccccc1Cl)c1nc(Cl)n(C2CC2C(F)(F)F)c1Cl (stereo not drawn) [I-469]
pest or weed control at 20 ppm (Meloidogyne incognita): 100%

CC(C)S(=O)(=O)NC(=O)c1cn(C)c(C(F)(F)F)n1 [I-471]
pest or weed control at 20 ppm (Meloidogyne incognita): 90%

Cn1cc(C(=O)NS(=O)(=O)c2ccccc2Cl)nc1C(F)(F)F [I-472]
pest or weed control at 20 ppm (Meloidogyne incognita): 90%

Cn1cc(C(=O)NS(=O)(=O)c2ccccc2Br)nc1C(F)(F)F [I-473]
pest or weed control at 20 ppm (Meloidogyne incognita): 90%

Cc1ccccc1S(=O)(=O)NC(=O)c1cn(C)c(C(F)(F)F)n1 [I-474]
pest or weed control at 20 ppm (Meloidogyne incognita): 100%

COc1ccc(Cl)c(S(=O)(=O)NC(=O)c2cn(C)c(C(F)(F)F)n2)c1 [I-475]
pest or weed control at 20 ppm (Meloidogyne incognita): 90%

CC(C)Sc1nc(C(=O)NS(=O)(=O)c2ccccc2Cl)cn1C [I-476]
pest or weed control at 20 ppm (Meloidogyne incognita): 70%

Cc1ccccc1S(=O)(=O)NC(=O)c1cn(C)c(SC(C)C)n1 [I-477]
pest or weed control at 20 ppm (Meloidogyne incognita): 90%

COc1ccccc1S(=O)(=O)NC(=O)c1cn(C)c(SC(C)C)n1 [I-478]
pest or weed control at 20 ppm (Meloidogyne incognita): 70%

COc1ccc(Cl)c(S(=O)(=O)NC(=O)c2ncn(-c3ccccc3Cl)c2C(F)F)c1 [I-479]
pest or weed control at 20 ppm (Meloidogyne incognita): 90%

COc1ccc(Cl)c(S(=O)(=O)NC(=O)c2ncn(-c3cccc(Cl)c3)c2C(F)F)c1 [I-480]
pest or weed control at 20 ppm (Meloidogyne incognita): 90%

COc1ccc(Cl)c(S(=O)(=O)NC(=O)c2ncn(-c3ccc(Cl)cc3)c2C(F)F)c1 [I-481]
pest or weed control at 20 ppm (Meloidogyne incognita): 70%

COc1ccc(Cl)c(S(=O)(=O)NC(=O)c2ncn(-c3ccc(Cl)cc3Cl)c2C(F)F)c1 [I-482]
pest or weed control at 20 ppm (Meloidogyne incognita): 90%

COc1ccc(Cl)c(S(=O)(=O)NC(=O)c2ncn(-c3ccc(Cl)cc3Cl)c2C(C)C)c1 [I-484]
pest or weed control at 20 ppm (Meloidogyne incognita): 70%

COc1ccc(Cl)c(S(=O)(=O)NC(=O)c2ncn(-c3cccc(Cl)c3)c2C2CC2)c1 [I-485]
pest or weed control at 20 ppm (Meloidogyne incognita): 90%

COc1ccc(Cl)c(S(=O)(=O)NC(=O)c2ncn(-c3ccc(Cl)cc3Cl)c2C2CC2)c1 [I-486]
pest or weed control at 20 ppm (Meloidogyne incognita): 70%

COc1ccc(Cl)c(S(=O)(=O)NC(=O)c2ncn(-c3c(F)cccc3F)c2C(F)F)c1 [I-487]
pest or weed control at 20 ppm (Meloidogyne incognita): 100%

COc1ccc(Cl)c(S(=O)(=O)NC(=O)c2ncn(-c3cccc(Cl)c3)c2C(C)C)c1 [I-488]
pest or weed control at 20 ppm (Meloidogyne incognita): 90%

COc1ccc(Cl)c(S(=O)(=O)NC(=O)c2ncn(-c3ccccc3Cl)c2C2CC2)c1 [I-489]
pest or weed control at 20 ppm (Meloidogyne incognita): 90%

COc1ccc(Cl)c(S(=O)(=O)NC(=O)c2ncn(-c3cc(F)ccc3F)c2C2CC2)c1 [I-490]
pest or weed control at 20 ppm (Meloidogyne incognita): 90%

COc1ccc(Cl)c(S(=O)(=O)NC(=O)c2ncn(-c3cc(F)ccc3F)c2C(C)C)c1 [I-491]
pest or weed control at 20 ppm (Meloidogyne incognita): 100%
